Reference: patent publication US11572590B2, “Methods for evaluating tumor cell spheroids using 3D microfluidic cell culture device” (Dana-Farber Cancer Institute, Inc., priority 2017, dated 2023)
Read-outs that look alike come from different tables or passages of the source.

Assays:
Assay in all cases: SelectScreen Kinase Profiling, single point inhibition and IC50 for off-target kinases
Type in all cases: biochemical
off-target kinases [1] = biological target: off-target kinases (Homo sapiens, UniProt P49841); details: GSK3B (GSK3 beta), ZLYTE, ATP Km app
Sequence of off-target kinases (Homo sapiens, UniProt P49841) (P49841 whole entry): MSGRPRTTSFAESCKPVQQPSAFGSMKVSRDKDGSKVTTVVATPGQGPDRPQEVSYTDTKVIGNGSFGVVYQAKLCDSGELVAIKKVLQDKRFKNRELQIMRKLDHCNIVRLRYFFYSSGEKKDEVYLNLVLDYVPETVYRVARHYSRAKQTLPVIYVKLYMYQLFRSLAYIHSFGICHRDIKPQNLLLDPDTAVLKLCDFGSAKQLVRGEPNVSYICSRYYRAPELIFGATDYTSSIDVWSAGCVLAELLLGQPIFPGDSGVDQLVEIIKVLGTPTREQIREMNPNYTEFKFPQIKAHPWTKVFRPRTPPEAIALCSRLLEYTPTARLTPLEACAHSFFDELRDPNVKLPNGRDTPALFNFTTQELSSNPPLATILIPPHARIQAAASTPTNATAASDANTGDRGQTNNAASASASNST

off-target kinases [2] = biological target: off-target kinases (Homo sapiens, UniProt O96013); details: PAK4, ATP Km app, ZLYTE
Sequence of off-target kinases (Homo sapiens, UniProt O96013) (O96013 whole entry): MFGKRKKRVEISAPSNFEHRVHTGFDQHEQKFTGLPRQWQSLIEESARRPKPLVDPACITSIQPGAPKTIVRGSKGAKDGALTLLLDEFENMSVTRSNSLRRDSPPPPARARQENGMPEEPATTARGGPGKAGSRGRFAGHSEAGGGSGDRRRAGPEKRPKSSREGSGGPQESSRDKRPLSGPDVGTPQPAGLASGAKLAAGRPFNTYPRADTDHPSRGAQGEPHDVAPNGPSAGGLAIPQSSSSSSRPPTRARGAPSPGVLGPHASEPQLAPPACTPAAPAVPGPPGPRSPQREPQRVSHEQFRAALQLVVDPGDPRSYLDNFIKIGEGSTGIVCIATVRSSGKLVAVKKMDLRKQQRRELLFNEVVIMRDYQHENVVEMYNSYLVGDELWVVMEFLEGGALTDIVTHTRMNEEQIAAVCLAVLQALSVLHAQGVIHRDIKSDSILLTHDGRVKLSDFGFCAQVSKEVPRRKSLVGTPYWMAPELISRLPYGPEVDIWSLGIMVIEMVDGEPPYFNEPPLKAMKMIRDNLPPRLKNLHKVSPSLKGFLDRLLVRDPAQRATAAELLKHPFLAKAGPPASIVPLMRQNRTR

off-target kinases [3] = biological target: off-target kinases (Homo sapiens, UniProt P00519, Q252H); details: ABL1 Q252H, LanthaScreen Binding
off-target kinases [4] = biological target: off-target kinases (Homo sapiens, UniProt Q16620); details: NTRK2 (TRKB), ZLYTE, ATP Km app
Sequence of off-target kinases (Homo sapiens, UniProt Q16620) (Q16620 32-822): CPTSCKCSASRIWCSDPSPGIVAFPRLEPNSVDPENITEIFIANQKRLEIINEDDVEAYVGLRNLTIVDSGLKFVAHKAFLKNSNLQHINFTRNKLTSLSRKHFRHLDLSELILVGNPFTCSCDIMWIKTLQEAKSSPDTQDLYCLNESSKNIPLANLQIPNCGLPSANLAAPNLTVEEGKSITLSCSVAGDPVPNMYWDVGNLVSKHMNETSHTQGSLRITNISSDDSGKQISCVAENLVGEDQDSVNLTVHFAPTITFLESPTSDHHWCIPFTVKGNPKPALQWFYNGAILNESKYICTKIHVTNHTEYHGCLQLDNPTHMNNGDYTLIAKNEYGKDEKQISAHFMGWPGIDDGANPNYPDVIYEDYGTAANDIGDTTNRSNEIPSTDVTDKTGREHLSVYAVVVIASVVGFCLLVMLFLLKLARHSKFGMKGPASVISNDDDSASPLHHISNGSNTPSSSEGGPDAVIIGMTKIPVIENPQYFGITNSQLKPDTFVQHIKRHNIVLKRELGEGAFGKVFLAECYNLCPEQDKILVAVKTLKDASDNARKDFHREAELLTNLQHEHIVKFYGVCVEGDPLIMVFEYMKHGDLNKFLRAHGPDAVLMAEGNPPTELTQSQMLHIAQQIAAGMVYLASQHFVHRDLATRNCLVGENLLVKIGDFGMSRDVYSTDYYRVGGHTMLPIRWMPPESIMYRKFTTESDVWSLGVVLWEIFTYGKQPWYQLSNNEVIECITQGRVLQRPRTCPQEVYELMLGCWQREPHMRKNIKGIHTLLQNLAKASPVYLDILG

off-target kinases [5] = biological target: off-target kinases (Homo sapiens, UniProt Q9BWU1); details: CDK11 (Inactive); Cmpd1 1000 μM; LanthaScreen Binding
Sequence of off-target kinases (Homo sapiens, UniProt Q9BWU1) (Q9BWU1 whole entry): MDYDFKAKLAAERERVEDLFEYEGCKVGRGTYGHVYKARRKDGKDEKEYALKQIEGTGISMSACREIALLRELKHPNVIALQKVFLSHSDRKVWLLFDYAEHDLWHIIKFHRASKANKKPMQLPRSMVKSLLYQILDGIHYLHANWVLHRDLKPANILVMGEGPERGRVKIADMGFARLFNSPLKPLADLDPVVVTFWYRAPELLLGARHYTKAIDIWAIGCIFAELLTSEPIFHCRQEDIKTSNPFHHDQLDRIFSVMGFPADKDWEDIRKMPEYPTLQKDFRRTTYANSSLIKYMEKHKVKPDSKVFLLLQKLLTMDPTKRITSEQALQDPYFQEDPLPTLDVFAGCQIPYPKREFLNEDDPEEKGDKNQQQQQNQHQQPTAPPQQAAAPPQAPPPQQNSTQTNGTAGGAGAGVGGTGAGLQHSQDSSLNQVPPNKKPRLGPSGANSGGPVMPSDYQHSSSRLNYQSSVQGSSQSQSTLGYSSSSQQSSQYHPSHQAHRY

off-target kinases [6] = biological target: off-target kinases (Homo sapiens, UniProt Q9Y463); details: DYRK1B, ZLYTE, ATP Km app
Sequence of off-target kinases (Homo sapiens, UniProt Q9Y463) (Q9Y463 whole entry): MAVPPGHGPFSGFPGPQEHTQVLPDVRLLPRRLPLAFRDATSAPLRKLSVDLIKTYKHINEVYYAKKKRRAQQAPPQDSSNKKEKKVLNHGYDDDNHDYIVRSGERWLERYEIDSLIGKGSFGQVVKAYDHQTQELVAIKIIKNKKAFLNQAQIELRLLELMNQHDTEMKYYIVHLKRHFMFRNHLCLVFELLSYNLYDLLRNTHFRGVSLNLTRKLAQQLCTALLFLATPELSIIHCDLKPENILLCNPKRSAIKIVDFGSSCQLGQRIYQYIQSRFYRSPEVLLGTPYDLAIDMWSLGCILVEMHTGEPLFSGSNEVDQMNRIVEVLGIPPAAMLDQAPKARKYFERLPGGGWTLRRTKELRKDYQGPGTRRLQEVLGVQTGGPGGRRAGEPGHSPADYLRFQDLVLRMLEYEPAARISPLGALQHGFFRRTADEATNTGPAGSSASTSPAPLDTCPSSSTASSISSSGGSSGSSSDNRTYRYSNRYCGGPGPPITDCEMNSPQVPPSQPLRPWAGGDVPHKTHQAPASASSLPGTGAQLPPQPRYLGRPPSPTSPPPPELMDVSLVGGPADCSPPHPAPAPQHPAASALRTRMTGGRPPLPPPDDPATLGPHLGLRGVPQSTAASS

off-target kinases [7] = biological target: off-target kinases (Homo sapiens, UniProt Q9HC98); details: NEK6, ZLYTE, ATP Km app
Sequence of off-target kinases (Homo sapiens, UniProt Q9HC98) (Q9HC98 whole entry): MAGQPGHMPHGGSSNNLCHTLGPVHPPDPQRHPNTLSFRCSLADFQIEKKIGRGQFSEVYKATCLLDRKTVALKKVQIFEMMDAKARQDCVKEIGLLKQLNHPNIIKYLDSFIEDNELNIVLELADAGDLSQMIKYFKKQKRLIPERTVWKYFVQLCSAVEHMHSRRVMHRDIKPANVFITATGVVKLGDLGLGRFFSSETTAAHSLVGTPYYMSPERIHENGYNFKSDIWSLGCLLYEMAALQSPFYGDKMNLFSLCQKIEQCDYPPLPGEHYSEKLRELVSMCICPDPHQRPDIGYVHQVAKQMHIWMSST

off-target kinases [8] = biological target: off-target kinases (Homo sapiens, UniProt P10721, Y823D); details: KIT Y823D, LanthaScreen Binding
Sequence of off-target kinases (Homo sapiens, UniProt P10721, Y823D) (P10721 26-976 Y823D): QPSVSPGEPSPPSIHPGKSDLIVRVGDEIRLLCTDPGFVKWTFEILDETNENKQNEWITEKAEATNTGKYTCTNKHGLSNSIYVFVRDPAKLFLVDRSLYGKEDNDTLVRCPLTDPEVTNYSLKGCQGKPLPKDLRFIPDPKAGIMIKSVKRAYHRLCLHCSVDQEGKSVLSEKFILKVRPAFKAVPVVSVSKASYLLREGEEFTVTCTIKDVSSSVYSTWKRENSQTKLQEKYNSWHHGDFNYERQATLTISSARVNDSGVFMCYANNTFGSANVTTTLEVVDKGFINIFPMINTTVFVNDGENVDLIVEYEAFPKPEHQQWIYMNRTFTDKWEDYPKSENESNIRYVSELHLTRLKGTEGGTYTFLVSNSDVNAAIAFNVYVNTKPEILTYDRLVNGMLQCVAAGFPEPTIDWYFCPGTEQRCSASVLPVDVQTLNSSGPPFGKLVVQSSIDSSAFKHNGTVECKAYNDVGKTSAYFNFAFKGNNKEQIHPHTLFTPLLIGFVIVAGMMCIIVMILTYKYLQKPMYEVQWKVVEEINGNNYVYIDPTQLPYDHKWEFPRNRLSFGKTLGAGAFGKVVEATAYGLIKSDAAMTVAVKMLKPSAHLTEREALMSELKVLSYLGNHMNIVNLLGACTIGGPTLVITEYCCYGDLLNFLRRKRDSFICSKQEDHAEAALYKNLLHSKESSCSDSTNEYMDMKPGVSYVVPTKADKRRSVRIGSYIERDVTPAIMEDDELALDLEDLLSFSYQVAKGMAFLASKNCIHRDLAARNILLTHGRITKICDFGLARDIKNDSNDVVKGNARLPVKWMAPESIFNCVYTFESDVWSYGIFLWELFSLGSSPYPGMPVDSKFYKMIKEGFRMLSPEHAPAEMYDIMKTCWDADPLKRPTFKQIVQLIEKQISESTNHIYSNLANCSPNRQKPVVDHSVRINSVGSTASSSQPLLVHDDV

off-target kinases [9] = biological target: off-target kinases (Homo sapiens, UniProt P06493)
Sequence of off-target kinases (Homo sapiens, UniProt P06493) (P06493 whole entry): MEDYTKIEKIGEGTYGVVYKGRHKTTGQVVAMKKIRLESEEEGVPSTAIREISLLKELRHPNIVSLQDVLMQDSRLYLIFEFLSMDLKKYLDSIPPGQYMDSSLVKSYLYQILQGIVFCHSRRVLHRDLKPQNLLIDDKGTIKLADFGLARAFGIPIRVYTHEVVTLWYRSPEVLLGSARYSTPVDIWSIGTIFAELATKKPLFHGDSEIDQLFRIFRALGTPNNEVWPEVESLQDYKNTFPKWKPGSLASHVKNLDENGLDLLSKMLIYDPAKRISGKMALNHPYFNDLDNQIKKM

off-target kinases [10] = biological target: T1, off-target kinases (Homo sapiens, UniProt Q96PF2); details: STK22B (TSSK2), ZLYTE, ATP Km app
T1 sequence (Q96PF2 1-358): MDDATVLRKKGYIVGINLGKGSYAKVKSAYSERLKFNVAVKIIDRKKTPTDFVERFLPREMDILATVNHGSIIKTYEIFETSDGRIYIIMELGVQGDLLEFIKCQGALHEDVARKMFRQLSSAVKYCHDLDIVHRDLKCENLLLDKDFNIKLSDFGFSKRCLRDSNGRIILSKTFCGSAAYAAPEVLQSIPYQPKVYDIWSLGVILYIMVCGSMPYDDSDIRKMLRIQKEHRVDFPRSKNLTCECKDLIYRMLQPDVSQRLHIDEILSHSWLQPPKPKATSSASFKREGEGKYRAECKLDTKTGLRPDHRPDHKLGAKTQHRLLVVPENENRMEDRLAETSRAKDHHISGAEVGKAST

off-target kinases [11] = biological target: off-target kinases (Homo sapiens, UniProt P31749); details: AKT1 (PKB alpha), ZLYTE, ATP Km app
Sequence of off-target kinases (Homo sapiens, UniProt P31749) (P31749 whole entry): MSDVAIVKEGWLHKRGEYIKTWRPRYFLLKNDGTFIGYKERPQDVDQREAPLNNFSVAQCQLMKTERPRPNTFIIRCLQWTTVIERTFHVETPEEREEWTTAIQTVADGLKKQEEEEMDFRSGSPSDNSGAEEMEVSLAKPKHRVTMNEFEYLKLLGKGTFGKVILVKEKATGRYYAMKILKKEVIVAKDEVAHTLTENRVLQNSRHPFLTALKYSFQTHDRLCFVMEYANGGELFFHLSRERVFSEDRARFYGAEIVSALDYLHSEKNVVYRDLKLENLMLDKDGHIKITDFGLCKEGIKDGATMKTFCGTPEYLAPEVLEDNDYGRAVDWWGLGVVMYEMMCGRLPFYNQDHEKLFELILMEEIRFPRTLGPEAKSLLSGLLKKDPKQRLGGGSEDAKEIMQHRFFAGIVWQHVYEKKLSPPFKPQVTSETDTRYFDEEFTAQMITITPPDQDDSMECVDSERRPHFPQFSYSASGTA

off-target kinases [12] = biological target: off-target kinases (Homo sapiens, UniProt P22455); details: FGFR4, ZLYTE, ATP Km app

## N#Cc1cc(-c2ncnc(Nc3ccc(N4CCN(C5COC5)CC4)cc3)n2)ccc1OC1CCOCC1 [Compound 1, 5-(4-((4-(4-(oxetan-3-yl)piperazin-1-yl)phenyl)amino)-1,3,5-triazin-2-yl)-2-((tetrahydro-2H-pyran-4-yl)oxy)benzonitrile]
off-target kinases [1]; read-out: % Inhibition 1
  inhibition: 21%
off-target kinases [1]; read-out: % Inhibition 2
  inhibition: 21%
off-target kinases [1]; read-out: % Inhibition Avg
  inhibition: 21%
off-target kinases [2]; read-out: % Inhibition 1
  inhibition: 91%
off-target kinases [2]; read-out: % Inhibition 2
  inhibition: 90%
off-target kinases [2]; read-out: % Inhibition Avg
  inhibition: 90%
off-target kinases [3]; read-out: % Inhibition 1
  inhibition: 52%
off-target kinases [3]; read-out: % Inhibition 2
  inhibition: 41%
off-target kinases [3]; read-out: % Inhibition Avg
  inhibition: 46%
off-target kinases [4]; read-out: % Inhibition 1
  inhibition: 5%
off-target kinases [4]; read-out: % Inhibition 2
  inhibition: 7%
off-target kinases [4]; read-out: % Inhibition Avg
  inhibition: 6%
off-target kinases [5]
  % Inhibition 1: −1%
  % Inhibition 2: −7%
  % Inhibition Avg: −4%
off-target kinases [6]; read-out: % Inhibition 1
  inhibition: 14%
off-target kinases [6]; read-out: % Inhibition 2
  inhibition: 9%
off-target kinases [6]; read-out: % Inhibition Avg
  inhibition: 11%
off-target kinases [7]; read-out: % Inhibition 1
  inhibition: 12%
off-target kinases [7]; read-out: % Inhibition 2
  inhibition: 6%
off-target kinases [7]; read-out: % Inhibition Avg
  inhibition: 9%
off-target kinases [8]; read-out: % Inhibition 1
  inhibition: 47%
off-target kinases [8]; read-out: % Inhibition 2
  inhibition: 59%
off-target kinases [8]; read-out: % Inhibition Avg
  inhibition: 53%
off-target kinases [9]; CDK1/cyclin A2, LanthaScreen Binding, read-out: % Inhibition 1
  inhibition: 2%
off-target kinases [9]; CDK1/cyclin A2, LanthaScreen Binding, read-out: % Inhibition 2
  inhibition: 12%
off-target kinases [9]; CDK1/cyclin A2, LanthaScreen Binding, read-out: % Inhibition Avg
  inhibition: 7%
off-target kinases [9]; CDK1/cyclin B, ZLYTE, ATP Km app, read-out: % Inhibition 1
  inhibition: 16%
off-target kinases [9]; CDK1/cyclin B, ZLYTE, ATP Km app, read-out: % Inhibition 2
  inhibition: 15%
off-target kinases [9]; CDK1/cyclin B, ZLYTE, ATP Km app, read-out: % Inhibition Avg
  inhibition: 16%
off-target kinases [10]; read-out: % Inhibition 1
  inhibition: 12%
off-target kinases [10]; read-out: % Inhibition 2
  inhibition: 14%
off-target kinases [10]; read-out: % Inhibition Avg
  inhibition: 13%
off-target kinases [11]; read-out: % Inhibition 1
  inhibition: 1%
off-target kinases [11]; read-out: % Inhibition 2
  inhibition: 3%
off-target kinases [11]; read-out: % Inhibition Avg
  inhibition: 2%
off-target kinases [12]; read-out: % Inhibition 1
  inhibition: 7%
off-target kinases [12]; read-out: % Inhibition 2
  inhibition: -2%
off-target kinases [12]; read-out: % Inhibition Avg
  inhibition: 3%
